Measurements from patent US20230117034A1, “PYRAZOLOTRIAZINES” (Bayer Aktiengesellschaft, priority 2019, published 2023).

Biological target: T1, CDK12 protein level in CAL-120 breast cancer cells (Homo sapiens, UniProt Q9NYV4)
T1 construct: endogenous in cells; host or cells: CAL-120 human breast cancer cells (DSMZ ACC 459)
Assay: CDK12 protein level: Protein Simple (CDK12, CAL-120)
Format: cell-based
Conditions: CAL-120 cells, 18 h with compound, CDK12/HSP90 peak area ratio vs vehicle, median, read-out: CDK12 protein level in CAL-120 breast ca cells, DC50-[mol/l] (median)
Outline: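 Cells grown 24 h, then treated with compounds for 18 h at 37° C against DMSO controls. Lysates (0.4 microgramms protein) run on Protein Simple 66-440 kDa size assay with CDK12 and HSP90 loading-control antibodies. CDK12/HSP90 peak-area ratios versus vehicle gave DC50 (50% reduction) by 4-parameter fit.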

T1 sequence (Q9NYV4 whole entry): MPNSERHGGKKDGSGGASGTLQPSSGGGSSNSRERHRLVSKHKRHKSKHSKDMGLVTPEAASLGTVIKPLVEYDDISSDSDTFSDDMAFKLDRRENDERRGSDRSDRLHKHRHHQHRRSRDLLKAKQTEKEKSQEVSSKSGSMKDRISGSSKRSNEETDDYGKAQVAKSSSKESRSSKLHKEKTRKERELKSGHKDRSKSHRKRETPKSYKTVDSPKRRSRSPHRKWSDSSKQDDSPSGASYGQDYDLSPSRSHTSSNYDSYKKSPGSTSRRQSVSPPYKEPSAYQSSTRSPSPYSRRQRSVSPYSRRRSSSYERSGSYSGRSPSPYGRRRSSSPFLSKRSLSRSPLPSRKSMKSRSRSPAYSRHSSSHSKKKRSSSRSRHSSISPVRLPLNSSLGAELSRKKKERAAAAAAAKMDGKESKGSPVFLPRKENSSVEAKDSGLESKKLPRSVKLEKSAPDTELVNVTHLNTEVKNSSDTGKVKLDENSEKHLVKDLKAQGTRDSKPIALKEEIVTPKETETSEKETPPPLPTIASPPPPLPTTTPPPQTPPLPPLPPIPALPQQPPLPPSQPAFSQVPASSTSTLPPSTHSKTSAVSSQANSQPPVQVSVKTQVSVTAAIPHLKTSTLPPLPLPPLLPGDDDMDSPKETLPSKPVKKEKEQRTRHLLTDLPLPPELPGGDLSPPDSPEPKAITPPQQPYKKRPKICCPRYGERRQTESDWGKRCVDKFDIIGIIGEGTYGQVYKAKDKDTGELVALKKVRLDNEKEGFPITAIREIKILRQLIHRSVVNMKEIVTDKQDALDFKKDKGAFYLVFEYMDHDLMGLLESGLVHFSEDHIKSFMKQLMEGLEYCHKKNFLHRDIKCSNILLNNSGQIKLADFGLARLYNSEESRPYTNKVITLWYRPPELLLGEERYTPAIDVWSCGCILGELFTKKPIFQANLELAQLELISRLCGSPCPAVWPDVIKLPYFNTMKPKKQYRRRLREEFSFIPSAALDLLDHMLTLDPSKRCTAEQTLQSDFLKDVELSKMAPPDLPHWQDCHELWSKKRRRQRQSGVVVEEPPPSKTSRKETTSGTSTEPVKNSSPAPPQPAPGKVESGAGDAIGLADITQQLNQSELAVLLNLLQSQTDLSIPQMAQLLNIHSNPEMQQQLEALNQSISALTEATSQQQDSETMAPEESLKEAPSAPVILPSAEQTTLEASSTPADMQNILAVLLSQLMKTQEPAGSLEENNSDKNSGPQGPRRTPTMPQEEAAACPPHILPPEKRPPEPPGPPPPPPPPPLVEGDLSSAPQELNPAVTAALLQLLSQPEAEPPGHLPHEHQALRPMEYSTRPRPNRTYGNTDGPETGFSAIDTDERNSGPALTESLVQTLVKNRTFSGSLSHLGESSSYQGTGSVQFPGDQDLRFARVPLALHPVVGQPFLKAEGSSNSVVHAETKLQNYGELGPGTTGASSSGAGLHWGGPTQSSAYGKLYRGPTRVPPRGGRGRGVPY
T1 sequence (O75909 whole entry partner): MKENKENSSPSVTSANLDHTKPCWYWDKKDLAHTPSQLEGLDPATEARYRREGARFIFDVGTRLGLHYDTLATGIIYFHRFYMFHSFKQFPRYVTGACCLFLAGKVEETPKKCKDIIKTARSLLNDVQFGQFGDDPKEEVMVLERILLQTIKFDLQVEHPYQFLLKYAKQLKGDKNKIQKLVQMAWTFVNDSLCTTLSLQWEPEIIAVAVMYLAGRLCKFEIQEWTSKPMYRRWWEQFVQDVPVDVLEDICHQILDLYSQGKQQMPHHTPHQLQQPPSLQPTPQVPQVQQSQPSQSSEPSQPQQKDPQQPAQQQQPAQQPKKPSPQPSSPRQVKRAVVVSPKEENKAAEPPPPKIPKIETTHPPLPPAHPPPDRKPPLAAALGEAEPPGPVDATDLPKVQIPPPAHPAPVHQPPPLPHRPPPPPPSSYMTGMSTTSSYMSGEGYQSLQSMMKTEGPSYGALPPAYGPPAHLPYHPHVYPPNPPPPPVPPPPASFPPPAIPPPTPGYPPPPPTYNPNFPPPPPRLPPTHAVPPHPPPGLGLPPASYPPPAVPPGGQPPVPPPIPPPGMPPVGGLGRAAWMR

DC50 [nM] | Structure (SMILES)
44.6 | Cc1[nH]c(CNc2nc(N3CCOCC3)nc3c(Br)cnn23)nc1-c1ccccc1 [Example 27, 8-bromo-N-[(5-methyl-4-phenyl-1H-imidazol-2-yl)methyl]-2-(morpholin-4-yl)pyrazolo[1,5-a][1,3,5]triazin-4-amine]
1.44 | Cc1ccnc2[nH]c(CNc3nc(N4CCOCC4)nc4c(C(C)C)cnn34)nc12 [Example 28, N-[(7-methyl-3H-imidazo[4,5-b]pyridin-2-yl)methyl]-2-(morpholin-4-yl)-8-(propan-2-yl)pyrazolo[1,5-a][1,3,5]triazin-4-amine]
9.15 | Fc1ccc(-c2nnc(CNc3nc(N4CCOCC4)nc4c(Br)cnn34)[nH]2)cc1 [Example 29, 8-bromo-N-{[5-(4-fluorophenyl)-4H-1,2,4-triazol-3-yl]methyl}-2-(morpholin-4-yl)pyrazolo[1,5-a][1,3,5]triazin-4-amine]
10.9 | CC(C)c1cnn2c(NCc3ncc(-c4ccccc4)[nH]3)nc(N3CCN(C)CC3)nc12 [Example 31, 2-(4-methylpiperazin-1-yl)-N-[(5-phenyl-1H-imidazol-2-yl)methyl]-8-(propan-2-yl)pyrazolo[1,5-a][1,3,5]triazin-4-amine]
